Test results: patent US20230203060A1 (GENFLEET THERAPEUTICS (SHANGHAI) INC., priority 2020, published 2023)
Where two headings read alike, the source gives them in different places.

What was measured:
[1] = test system: phosphorylated ERK downstream of KRAS G12C in MIA PaCa2 cells; experiment: Cell p-ERK detection experiment (HTRF) in MIA PaCa2; type: cell-based, human; conditions: MIA PaCa2 cells, 2 hours with compound, Advance ERK phospho-T202/Y204 HTRF kit, read-out: p-ERK IC50
Procedure, shortened: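 KRAS G12C-mutant MIA PaCa2 cells (2.5E4 per well, overnight) exposed 2 h to a 3.16-fold compound dilution series at 0.1% DMSO. Lysates probed 4 h with HTRF antibodies to ERK phospho-T202/Y204; inhibition versus DMSO control and blank, IC50 by four-parameter fit.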

[2] = test system: KRAS G12C mutant NCI-H358 cells; experiment: Cell proliferation inhibition experiment, 3D spheroid, CellTiter-Glo, NCI-H358; type: cell-based, human; conditions: NCI-H358 (KRAS G12C mutant) 3D spheroid, 5 days with compound, CellTiter-Glo, read-out: H358 IC50
Procedure, shortened: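 NCI-H358 (800 cells/well, RPMI-1640) and A549 (400 cells/well, F-12K) grown overnight as 3D spheroids in 2% FBS medium, then exposed 5 days to 3.16-fold compound dilutions at 0.1% DMSO. Viability measured by CellTiter-Glo luminescence; inhibition relative to DMSO and medium blank, IC50 from four-parameter fit.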

C=CC(=O)N1CCN2C(=O)c3c(N4CC[C@@H]4C)nc(-c4c(O)cccc4F)c(Cl)c3OC[C@H]2C1 [Z68, (6aR)-8-acryloyl-1-((S)-2-methylazetidin-1-yl)-4-chloro-3-(2-fluoro-6-hydroxyphenyl)-6,6a,7,8,9,10-hexahydro-12H-pyrazino[2,1-c]pyrido[3,4-f][1,4]oxazepin-12-one]
IC50 ([1]; Homo sapiens, MIA PaCa-2, 2 h): 88 nM | IC50 ([2]; Homo sapiens, NCI-H358, 120 h): 12 nM

C=CC(=O)N1CCN2C(=O)c3c(Nc4c(C)ccnc4C(C)C)nc(-c4c(O)cccc4F)c(Cl)c3OC[C@H]2C1 [Z5, (6aR)-8-acryloyl-4-chloro-3-(2-fluoro-6-hydroxyphenyl)-1-((2-isopropyl-4-methylpyridin-3-yl)amino)-6,6a,7,8,9,10-hexahydro-12H-pyrazino[2,1-c]pyrido[3,4-f][1,4]oxazepin-12-one]
IC50 ([1]; Homo sapiens, MIA PaCa-2, 2 h): 163 nM | IC50 ([2]; Homo sapiens, NCI-H358, 120 h): 31 nM

C=CC(=O)N1CCN2C(=O)c3c(N4C[C@H](O)C[C@@H]4C)nc(-c4c(O)cccc4F)c(Cl)c3OC[C@H]2C1 [Z259, (6aR)-8-acryloyl-4-chloro-3-(2-fluoro-6-hydroxyphenyl)-1-((2S,4R)-4-hydroxy-2-methylpyrrolidin-1-yl)-6,6a,7,8,9,10-hexahydro-12H-pyrazino[2,1-c]pyrido[3,4-f][1,4]oxazepin-12-one]
IC50 ([1]; Homo sapiens, MIA PaCa-2, 2 h): 195 nM | IC50 ([2]; Homo sapiens, NCI-H358, 120 h): 29 nM

C=CC(=O)N1CCN2C(=O)c3c(N4CC(=O)N(C)CC4C)nc(-c4c(O)cccc4F)c(Cl)c3OC[C@H]2C1 (single isomer, unassigned) [Z221-1]
IC50 [1]: 19 nM | IC50 [2]: 2.7 nM

C=CC(=O)N1CCN2C(=O)c3c(N4CCN(CCO)C[C@@H]4C)nc(-c4c(O)cccc4F)c(Cl)c3OC[C@H]2C1 [Z257, (6aR)-8-acryloyl-4-chloro-3-(2-fluoro-6-hydroxyphenyl)-1-((S)-4-(2-hydroxyethyl)-2-methylpiperazin-1-yl)-6,6a,7 ,8,9,10-hexahydro-12H-pyrazino[2,1-c]pyrido[3,4-f][1,4]oxazepin-12-one]
IC50 ([1]; Homo sapiens, MIA PaCa-2, 2 h): 104 nM | IC50 ([2]; Homo sapiens, NCI-H358, 120 h): 10.2 nM
